“And” between values parts separate entries of the source, which are not always exact repeats. Identical values can stand only once.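 Dose response: 5 concentrations. Exposure: 48 h. Format: 96-well plates. Endpoint: linear interpolation; highest concentration if not reached. GI50 is the concentration that inhibits growth by half. TGI denotes the concentration required for complete inhibition of growth.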
Columns and labels:
Test in all cases: NCI-60 cell line screen, 48 h
786-0 renal = system: 786-0 renal
MALME-3M melanoma = system: MALME-3M melanoma
SR leukemia = system: SR leukemia
UACC-257 melanoma = system: UACC-257 melanoma
OVCAR-3 ovarian = system: OVCAR-3 ovarian
NCI-H522 lung = system: NCI-H522 lung
RPMI-8226 leukemia = system: RPMI-8226 leukemia
RXF 393 renal = system: RXF 393 renal
SK-MEL-5 melanoma = system: SK-MEL-5 melanoma
HL-60(TB) leukemia = system: HL-60(TB) leukemia

In the case of `S=C(N/N=C(/c1ccccc1)c1ccccn1)N1CCCCC1`, the GI50 (786-0 renal) is reported as less than 0.001 µM, the TGI (786-0 renal) is reported as 1.87 µM and 1.88 µM and the GI50 (MALME-3M melanoma) is reported as 0.00735 µM. For the same compound, the TGI (MALME-3M melanoma) was 2.27 µM and 2.2 µM, the GI50 (SR leukemia) was less than 0.001 µM and the TGI (SR leukemia) was less than 0.001 µM. For the same compound, the GI50 (UACC-257 melanoma) was less than 0.001 µM, the TGI (UACC-257 melanoma) was 1.04 µM and 1.16 µM and the GI50 (OVCAR-3 ovarian) was less than 0.001 µM. For the same compound, the TGI (OVCAR-3 ovarian) was 1.88 µM and 1.39 µM, the GI50 (NCI-H522 lung) was 0.422 µM and the TGI (NCI-H522 lung) was 3.13 µM and 1.71 µM. For the same compound, the GI50 (RPMI-8226 leukemia) was less than 0.001 µM, the GI50 (RXF 393 renal) was 0.0129 µM and the TGI (RXF 393 renal) was 1.43 µM and 3.38 µM. The TGI (SK-MEL-5 melanoma) was 1.38 µM and 1.56 µM.

`Nc1nc(N)c(Cn2ccnc2)c(=O)[nH]1` gave a TGI (786-0 renal) greater than 100 µM, a TGI (MALME-3M melanoma) greater than 100 µM and a TGI (SR leukemia) greater than 100 µM. The TGI (UACC-257 melanoma) was greater than 100 µM, the TGI (OVCAR-3 ovarian) was greater than 100 µM and the TGI (NCI-H522 lung) was greater than 100 µM. The TGI (RPMI-8226 leukemia) was greater than 100 µM, the TGI (RXF 393 renal) was greater than 100 µM and the TGI (SK-MEL-5 melanoma) was greater than 100 µM.

Work on `Cc1cc(Cl)cc2c(N=Nc3ccccc3[N+](=O)[O-])c(O)[nH]c12` yielded a TGI (786-0 renal) greater than 100 µM, a TGI (SR leukemia) of 82.3 µM and a TGI (UACC-257 melanoma) greater than 100 µM. It also gave a TGI (OVCAR-3 ovarian) greater than 100 µM, a TGI (NCI-H522 lung) greater than 100 µM and a TGI (RPMI-8226 leukemia) greater than 100 µM. It also gave a TGI (HL-60(TB) leukemia) greater than 100 µM, a TGI (RXF 393 renal) greater than 100 µM and a TGI (SK-MEL-5 melanoma) greater than 100 µM.

With `CC(=O)Oc1cc(C)c2c(c1OC(C)=O)CC1(O2)[C@@H](C)CCC2[C@@]3(C)CC[C@H](OC(C)=O)C(C)(C)C3CC[C@]21C` (stereo partly drawn) the TGI (786-0 renal) was 7.46 µM, the TGI (SR leukemia) was 11.3 µM and the TGI (UACC-257 melanoma) was 21.8 µM. The TGI (OVCAR-3 ovarian) was 8.41 µM, the TGI (RPMI-8226 leukemia) was greater than 100 µM and the TGI (RXF 393 renal) was 2.84 µM. It also gave a TGI (SK-MEL-5 melanoma) of 10.7 µM.

`O=C1c2cccnc2C(=O)C2C3C=CC(C3)C12` (stereo not drawn) was tested, and the TGI (786-0 renal) was 24.2 µM, the TGI (MALME-3M melanoma) was 29.5 µM and the TGI (SR leukemia) was 6.65 µM. For the same compound, the TGI (UACC-257 melanoma) was 26.2 µM, the TGI (OVCAR-3 ovarian) was 31.8 µM and the TGI (NCI-H522 lung) was 13.8 µM. It also gave a TGI (RPMI-8226 leukemia) of 8.97 µM, a TGI (RXF 393 renal) of 10.3 µM and a TGI (SK-MEL-5 melanoma) of 23.2 µM.

In the case of `CC(=O)O[C@@]12CO[C@@H]1C[C@H](O)[C@@]1(C)C(=O)[C@H](O)C3=C(C)[C@@H](OC(=O)[C@H](O)[C@@H](NC(=O)OC(C)(C)C)c4ccccc4)C[C@@](O)([C@@H](OC(=O)c4ccccc4)[C@H]21)C3(C)C`, the GI50 (786-0 renal) is reported as 0.0612 µM and 0.00824 µM, the TGI (786-0 renal) is reported as greater than 100 µM and the GI50 (SR leukemia) is reported as 0.0154 µM and 0.00407 µM. It also gave a TGI (SR leukemia) of 23.5 µM, a GI50 (UACC-257 melanoma) of 0.31 µM and a TGI (UACC-257 melanoma) of 57.9 µM. The GI50 (OVCAR-3 ovarian) was 0.0296 µM and 0.00642 µM, the TGI (OVCAR-3 ovarian) was 0.0244 µM and the GI50 (NCI-H522 lung) was 0.00086 µM. The GI50 (RPMI-8226 leukemia) was 0.0057 µM and 0.00374 µM, the TGI (RPMI-8226 leukemia) was 15.6 µM and the GI50 (HL-60(TB) leukemia) was 0.00316 µM and 0.00342 µM. For the same compound, the GI50 (RXF 393 renal) was 0.0252 µM and 0.0165 µM, the GI50 (SK-MEL-5 melanoma) was 0.0133 µM and 0.00609 µM and the TGI (SK-MEL-5 melanoma) was 17.1 µM.

`O=c1cc(-c2ccccc2)oc2cc(O)c(O)c(O)c12` gave a GI50 (786-0 renal) of 9.87 µM, a TGI (786-0 renal) of 27.3 µM and a GI50 (UACC-257 melanoma) of 39 µM. The TGI (UACC-257 melanoma) was greater than 100 µM, the GI50 (OVCAR-3 ovarian) was 16 µM and the TGI (OVCAR-3 ovarian) was 41.7 µM. The GI50 (NCI-H522 lung) was 13.3 µM, the TGI (NCI-H522 lung) was greater than 100 µM and the GI50 (RPMI-8226 leukemia) was 9.27 µM. It also gave a TGI (RPMI-8226 leukemia) greater than 100 µM, a GI50 (HL-60(TB) leukemia) of 55.1 µM and a TGI (HL-60(TB) leukemia) greater than 100 µM. It also gave a GI50 (RXF 393 renal) of 78.6 µM, a TGI (RXF 393 renal) greater than 100 µM and a GI50 (SK-MEL-5 melanoma) of 9.47 µM. For the same compound, the TGI (SK-MEL-5 melanoma) was 45.3 µM.

For `CCOC(=O)N1C2C=C(C)C(ON2C(=O)c2ccccc2)C2C(C)C(=O)N21` (stereo not drawn), the TGI (786-0 renal) was greater than 100 µM, the TGI (MALME-3M melanoma) was greater than 100 µM and the TGI (SR leukemia) was greater than 100 µM. For the same compound, the TGI (UACC-257 melanoma) was greater than 100 µM, the TGI (OVCAR-3 ovarian) was greater than 100 µM and the TGI (RPMI-8226 leukemia) was greater than 100 µM. For the same compound, the TGI (HL-60(TB) leukemia) was greater than 100 µM, the TGI (RXF 393 renal) was greater than 100 µM and the TGI (SK-MEL-5 melanoma) was greater than 100 µM.

`CC(C)(O)C#Cc1ccc(/C=C/C(=O)c2ccccc2)s1` was tested, and the GI50 (786-0 renal) was 14.8 µM, the TGI (786-0 renal) was 28.8 µM and the GI50 (MALME-3M melanoma) was 16.4 µM. It also gave a TGI (MALME-3M melanoma) of 36.1 µM, a GI50 (SR leukemia) of 3.85 µM and a TGI (SR leukemia) of 13.8 µM. The GI50 (UACC-257 melanoma) was 18.4 µM, the TGI (UACC-257 melanoma) was 32.4 µM and the GI50 (OVCAR-3 ovarian) was 17 µM. For the same compound, the TGI (OVCAR-3 ovarian) was 31.5 µM, the GI50 (NCI-H522 lung) was 16 µM and the TGI (NCI-H522 lung) was 32.7 µM. For the same compound, the GI50 (RPMI-8226 leukemia) was 3.07 µM, the TGI (RPMI-8226 leukemia) was 11.5 µM and the GI50 (RXF 393 renal) was 14.7 µM. It also gave a TGI (RXF 393 renal) of 28.7 µM, a GI50 (SK-MEL-5 melanoma) of 16.1 µM and a TGI (SK-MEL-5 melanoma) of 30.5 µM.
